8 compounds from ChEMBL document CHEMBL1201862, “PubChem BioAssay data set” (2004) can be followed below.

One assay deals with T1, Aminopeptidase N (Plasmodium falciparum FcB1/Columbia, UniProt O96935).
T1 sequence (O96935 whole entry): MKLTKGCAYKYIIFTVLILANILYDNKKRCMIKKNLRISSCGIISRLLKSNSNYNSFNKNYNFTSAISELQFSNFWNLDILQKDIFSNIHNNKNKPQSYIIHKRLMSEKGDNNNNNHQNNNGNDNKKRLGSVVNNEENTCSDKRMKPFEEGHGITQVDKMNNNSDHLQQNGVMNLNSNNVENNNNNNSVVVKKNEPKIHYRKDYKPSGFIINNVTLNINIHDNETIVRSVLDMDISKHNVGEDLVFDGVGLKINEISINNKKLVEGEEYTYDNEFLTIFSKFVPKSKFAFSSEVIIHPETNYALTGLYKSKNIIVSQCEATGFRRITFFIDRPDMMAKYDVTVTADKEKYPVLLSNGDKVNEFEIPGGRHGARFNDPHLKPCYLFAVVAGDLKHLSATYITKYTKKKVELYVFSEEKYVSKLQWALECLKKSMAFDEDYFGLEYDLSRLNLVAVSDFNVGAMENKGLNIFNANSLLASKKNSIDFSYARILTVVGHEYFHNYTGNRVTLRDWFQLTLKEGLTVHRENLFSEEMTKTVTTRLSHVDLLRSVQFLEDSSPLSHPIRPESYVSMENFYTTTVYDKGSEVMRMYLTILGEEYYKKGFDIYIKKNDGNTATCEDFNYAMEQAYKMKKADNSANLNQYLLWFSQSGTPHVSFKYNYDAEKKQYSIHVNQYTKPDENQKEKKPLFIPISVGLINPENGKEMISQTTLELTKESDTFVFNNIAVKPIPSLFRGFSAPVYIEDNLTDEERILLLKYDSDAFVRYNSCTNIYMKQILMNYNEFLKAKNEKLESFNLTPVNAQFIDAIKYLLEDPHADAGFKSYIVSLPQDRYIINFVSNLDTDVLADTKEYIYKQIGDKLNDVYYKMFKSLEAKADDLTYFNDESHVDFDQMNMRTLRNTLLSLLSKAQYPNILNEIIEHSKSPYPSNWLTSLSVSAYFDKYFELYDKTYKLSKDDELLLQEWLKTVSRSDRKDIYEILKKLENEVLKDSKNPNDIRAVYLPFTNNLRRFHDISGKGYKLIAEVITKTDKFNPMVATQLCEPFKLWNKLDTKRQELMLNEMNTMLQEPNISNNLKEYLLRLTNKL
Briefly: malaria alanyl aminopeptidase activity blockers – biochemical, fluorogenic H-Leu-NHMec substrate, 1536-well (AID 1445). Further details: species or system Plasmodium falciparum 3D7, 3D7.

Assay [1] can be described thus: CCR5-tropic HIV-1 fusion blockers – cell-based, CCR5-tropic Env, dose response (AID 2279). The format is functional.
The nature of assay [2]: antiviral protection against BTV-induced cell death – arbovirus, BSR cells, confirmation (AID 1250).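 Further: protection from viral cytopathic effect measured as cell viability by ATP luminescence.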 The format is functional.
Another assay concerns the target Mucolipin-3 (Homo sapiens, UniProt Q8TDD5). Briefly: Dose response cell-based high-throughput screening assay for agonists of the transient receptor potential channel ML3 (TRPML3). [Related pubchem assays: 1526, 1424, 1448 ]. It is filed as functional.
In another assay the target is Ion channel NompC (Danio rerio, UniProt Q7T1G6). Put plainly: Fluorescence counterscreen assay for TRPML3 agonists: dose response cell-based high-throughput screening assay to identify agonists of the transient receptor potential channel N1 (TRPN1). [Related pubchem assays: 1526, 1424, 1448 ]. The format is functional. On the technique in general: A counterscreen serves to expose hits that act by an unwanted route or on another target.

The next assay concerns HeLa. Put plainly: Cytotoxicity counterscreen assay for transcriptional activators of heat shock protein 70 (Hsp70). [Related pubchem assays: 1203, 1252 ]. It is filed as functional. The conditions noted are these: Homo sapiens.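 Further: cells exposed to compound for 16 hours before readout.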
For assay [3], the target named is T2, Rac GTPase-activating protein 1 (Homo sapiens, UniProt Q9H0H5).
T2 sequence (Q9H0H5 whole entry): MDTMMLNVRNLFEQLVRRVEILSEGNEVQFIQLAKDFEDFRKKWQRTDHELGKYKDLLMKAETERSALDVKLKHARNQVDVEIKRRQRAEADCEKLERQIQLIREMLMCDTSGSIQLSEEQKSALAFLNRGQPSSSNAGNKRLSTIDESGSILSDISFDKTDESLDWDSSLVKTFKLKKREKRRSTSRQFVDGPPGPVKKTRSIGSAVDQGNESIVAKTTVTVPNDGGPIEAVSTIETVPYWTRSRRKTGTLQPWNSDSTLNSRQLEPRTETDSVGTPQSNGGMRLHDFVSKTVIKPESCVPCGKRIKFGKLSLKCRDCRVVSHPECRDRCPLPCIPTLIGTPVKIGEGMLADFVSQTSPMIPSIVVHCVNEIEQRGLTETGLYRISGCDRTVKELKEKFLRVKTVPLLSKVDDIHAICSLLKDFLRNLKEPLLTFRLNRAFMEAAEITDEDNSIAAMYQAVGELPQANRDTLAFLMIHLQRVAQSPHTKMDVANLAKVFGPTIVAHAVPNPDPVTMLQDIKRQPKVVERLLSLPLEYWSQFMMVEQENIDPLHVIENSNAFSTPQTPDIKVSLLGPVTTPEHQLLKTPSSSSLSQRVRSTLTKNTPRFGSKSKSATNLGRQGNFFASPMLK
Briefly: blockers of MgcRacGAP-driven Rac1 GTP hydrolysis – biochemical, ADP Hunter fluorescence, primary and confirmatory, confirmation (AID 624330). It is filed as functional.

A further assay deals with T3, Estrogen receptor (Homo sapiens, UniProt P03372).
T3 sequence (P03372 whole entry): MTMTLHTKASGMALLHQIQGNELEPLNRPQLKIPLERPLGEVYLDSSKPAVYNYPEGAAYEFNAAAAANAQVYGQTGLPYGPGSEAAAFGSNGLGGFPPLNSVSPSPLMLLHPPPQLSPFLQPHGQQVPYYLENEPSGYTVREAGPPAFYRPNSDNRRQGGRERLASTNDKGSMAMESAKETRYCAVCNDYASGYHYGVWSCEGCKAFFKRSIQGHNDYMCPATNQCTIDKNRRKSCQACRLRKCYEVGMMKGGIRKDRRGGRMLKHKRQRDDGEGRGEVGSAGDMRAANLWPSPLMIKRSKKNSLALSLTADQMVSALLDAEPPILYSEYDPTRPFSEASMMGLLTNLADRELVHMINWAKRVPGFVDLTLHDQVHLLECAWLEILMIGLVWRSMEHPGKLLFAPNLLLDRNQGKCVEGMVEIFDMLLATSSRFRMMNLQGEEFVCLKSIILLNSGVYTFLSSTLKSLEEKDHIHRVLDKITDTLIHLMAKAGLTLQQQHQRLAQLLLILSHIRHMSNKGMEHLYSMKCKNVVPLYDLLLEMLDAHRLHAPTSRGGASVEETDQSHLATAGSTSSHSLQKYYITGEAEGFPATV
Put plainly: blockers of SRC-3 recruitment to ERα – biochemical, ELISA, streptavidin-HRP readout, orthogonal assay, confirmation (AID 1079). For orientation: An ELISA detects its analyte on a solid surface through an enzyme-linked reagent.

Assay [4] addresses T4, Zinc finger protein mex-5 (Caenorhabditis elegans, UniProt Q9XUB2).
T4 sequence (Q9XUB2 whole entry): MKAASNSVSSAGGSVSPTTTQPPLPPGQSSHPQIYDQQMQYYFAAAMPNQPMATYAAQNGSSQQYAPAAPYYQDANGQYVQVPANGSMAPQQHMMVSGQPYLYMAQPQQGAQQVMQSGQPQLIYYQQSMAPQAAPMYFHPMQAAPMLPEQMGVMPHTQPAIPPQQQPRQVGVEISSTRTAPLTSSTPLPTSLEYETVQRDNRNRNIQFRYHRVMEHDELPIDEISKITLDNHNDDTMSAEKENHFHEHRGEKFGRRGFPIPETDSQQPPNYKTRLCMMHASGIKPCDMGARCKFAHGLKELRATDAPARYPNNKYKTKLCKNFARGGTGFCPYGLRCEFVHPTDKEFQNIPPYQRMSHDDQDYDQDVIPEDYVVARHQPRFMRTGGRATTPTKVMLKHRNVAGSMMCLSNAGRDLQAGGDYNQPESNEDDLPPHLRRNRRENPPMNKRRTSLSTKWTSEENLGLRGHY
Put plainly: potency of MEX-5 RNA-binding blockers – biochemical, C. elegans, fluorescence polarization, dose response (AID 1960). (In fluorescence polarisation assays a small probe gives low polarisation when free and higher when bound to something large.)

The nature of assay [5]: Trypanosoma cruzi growth suppression in host cells – NIH3T3 host cells, beta-gal luminescence, confirmation (AID 2044).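 Further: intracellular parasites grown in NIH/3T3 mouse fibroblasts as host cells; luminescent beta-galactosidase reporter signal from transgenic T. cruzi replicating inside host cells; inhibitors lower the luminescence signal.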 It is filed as functional, cell-based.
Assay [6] can be described thus: NIH3T3 cell viability loss – ATP luminescence, mouse fibroblasts, counter-screen, dose response (AID 2010).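 Further: cells exposed to compound for about 90 hours before reading.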 The format is functional, cell-based.
Assay [7] addresses Mothers against decapentaplegic homolog 3 (Homo sapiens, UniProt P84022). Put plainly: inhibitors of SMAD-driven TGF-beta signaling – dose response (AID 715). It is filed as functional.
In assay [8] the target is T5, RNA-binding protein pos-1 (Caenorhabditis elegans, UniProt G5EF15).
T5 sequence (G5EF15 whole entry): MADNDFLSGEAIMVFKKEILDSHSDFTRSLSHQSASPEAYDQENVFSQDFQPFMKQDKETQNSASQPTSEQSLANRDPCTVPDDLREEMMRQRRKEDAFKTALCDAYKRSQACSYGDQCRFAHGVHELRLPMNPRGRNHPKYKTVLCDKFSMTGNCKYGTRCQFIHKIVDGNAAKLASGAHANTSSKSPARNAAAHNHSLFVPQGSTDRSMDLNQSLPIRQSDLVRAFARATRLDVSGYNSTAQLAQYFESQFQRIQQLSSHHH
Briefly: disruptors of C. elegans POS-1 RNA interaction – biochemical, fluorescence polarization, dose response (AID 1964).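 Further: purified POS-1 fused to maltose binding protein made in E. coli; potency of compounds blocking POS-1 binding to fluorescent RNA.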

The test system of the next assay is Streptococcus. Briefly: GAS UMAA2166 growth inhibition – luminescence, BacTiterGlo, counter-screen for streptokinase expression inhibitor project, dose response (AID 1915).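 Further: potency for reduction of bacterial viability or growth.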 It is filed as functional, organism-based.
Assay [9] in a line: Luminescence Cell-Based Dose Retest to Confirm Inhibitors of Cancer Stem Cells. [Related pubchem assays (depositor defined):AID2717, AID2721]. The format is functional. The conditions noted are these: Homo sapiens.
Another assay addresses T6, Streptokinase A (Streptococcus pyogenes serotype M1, UniProt P10520).
T6 sequence (P10520 whole entry): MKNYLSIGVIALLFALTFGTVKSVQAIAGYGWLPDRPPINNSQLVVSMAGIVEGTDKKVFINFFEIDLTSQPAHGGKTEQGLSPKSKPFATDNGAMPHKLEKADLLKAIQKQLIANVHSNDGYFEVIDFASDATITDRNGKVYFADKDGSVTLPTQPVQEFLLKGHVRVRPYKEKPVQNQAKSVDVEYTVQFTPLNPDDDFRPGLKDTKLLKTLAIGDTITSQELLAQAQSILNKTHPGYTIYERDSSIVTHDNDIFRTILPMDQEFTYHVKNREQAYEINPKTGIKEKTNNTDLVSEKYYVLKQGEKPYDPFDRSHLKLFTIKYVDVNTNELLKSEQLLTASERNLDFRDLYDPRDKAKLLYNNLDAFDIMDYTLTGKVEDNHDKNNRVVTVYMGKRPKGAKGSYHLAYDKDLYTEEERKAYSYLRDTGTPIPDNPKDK
Put plainly: viability-normalized secreted streptokinase activity reduction – plasminogen activation absorbance, OD405, dose response (AID 1914).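 Further: secreted streptokinase activity via plasminogen activation per viability signal from cell pellet.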 The format is functional, Streptococcus pyogenes M1 GAS.

Assay [10] in a line: mitochondrial function rescue without frataxin homolog – Friedreich's ataxia, plus single-dose screen, dose response (AID 1465).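 Further: yeast depleted of Yfh1p frataxin homolog grown on glycerol needing respiration; WST-1 tetrazolium dye reduction as measure of cellular dehydrogenase metabolic activity.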 The format is functional.
In assay [11] the target is T7, Probable nicotinate-nucleotide adenylyltransferase (Staphylococcus aureus (strain N315), UniProt P65502). The format is functional, Staphylococcus aureus subsp. aureus N315. The note with it: read-out: IC50_Mean.
The subject of assay [12] is Streptococcus sp. 'group A'. Put plainly: Streptococcus pyogenes SK(-)GAS viability under kanamycin – luminescence, BacTiterGlo, confirmation, counter-screen for streptokinase expression inhibitor project, dose response (AID 1900). The format is functional, organism-based.
The target of assay [13] is T7, Probable nicotinate-nucleotide adenylyltransferase. It is filed as functional, Staphylococcus aureus subsp. aureus N315.
The target in assay [14] is Peroxisome proliferator-activated receptor gamma/Nuclear receptor coactivator 2 (Homo sapiens, UniProt P37231). The format is functional.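 Further: agonist potency for raising coactivator recruitment to the receptor.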
Assay [15] has as its target Peroxisome proliferator-activated receptor gamma/Nuclear receptor coactivator 1 (Homo sapiens, UniProt P37231). The format is functional.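 Further: agonist potency as compounds enhance coactivator SRC-1 recruitment to PPARgamma.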
Assay [16] addresses Peroxisome proliferator-activated receptor gamma/Nuclear receptor coactivator 3 (Homo sapiens, UniProt P37231). The format is functional.

Activity calls are given as the source filed them. Bounds are passed on as bounds.
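Wherever AC50 is given: cells exposed to compound for roughly 70 hours or longer before luminescence read.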
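Wherever IC50 Mean is given: confirmatory dose-response retesting of NadD inhibitor hits first found in an ultra-high-throughput screen.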

T7 sequence (P65502 whole entry): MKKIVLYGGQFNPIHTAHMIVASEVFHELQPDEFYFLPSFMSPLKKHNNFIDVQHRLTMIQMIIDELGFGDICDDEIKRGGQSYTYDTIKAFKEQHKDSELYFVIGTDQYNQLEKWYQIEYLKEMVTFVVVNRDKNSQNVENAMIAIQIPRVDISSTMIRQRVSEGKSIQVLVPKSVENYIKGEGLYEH
Mucolipin-3, sequence (Q8TDD5 whole entry): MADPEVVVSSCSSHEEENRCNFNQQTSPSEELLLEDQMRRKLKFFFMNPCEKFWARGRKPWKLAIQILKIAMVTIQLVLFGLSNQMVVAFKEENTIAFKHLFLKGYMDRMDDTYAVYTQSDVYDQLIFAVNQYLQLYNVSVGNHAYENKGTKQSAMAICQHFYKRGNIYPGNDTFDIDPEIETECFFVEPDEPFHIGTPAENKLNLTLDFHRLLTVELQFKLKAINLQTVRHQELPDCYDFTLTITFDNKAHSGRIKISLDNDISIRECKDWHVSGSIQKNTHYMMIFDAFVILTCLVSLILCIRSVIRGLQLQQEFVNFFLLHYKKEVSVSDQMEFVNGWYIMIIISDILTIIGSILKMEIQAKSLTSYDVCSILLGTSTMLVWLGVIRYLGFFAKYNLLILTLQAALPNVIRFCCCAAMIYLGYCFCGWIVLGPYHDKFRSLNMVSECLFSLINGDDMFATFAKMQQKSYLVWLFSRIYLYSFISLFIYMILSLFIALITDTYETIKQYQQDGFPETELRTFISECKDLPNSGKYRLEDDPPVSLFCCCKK
Ion channel NompC, sequence (Q7T1G6 whole entry): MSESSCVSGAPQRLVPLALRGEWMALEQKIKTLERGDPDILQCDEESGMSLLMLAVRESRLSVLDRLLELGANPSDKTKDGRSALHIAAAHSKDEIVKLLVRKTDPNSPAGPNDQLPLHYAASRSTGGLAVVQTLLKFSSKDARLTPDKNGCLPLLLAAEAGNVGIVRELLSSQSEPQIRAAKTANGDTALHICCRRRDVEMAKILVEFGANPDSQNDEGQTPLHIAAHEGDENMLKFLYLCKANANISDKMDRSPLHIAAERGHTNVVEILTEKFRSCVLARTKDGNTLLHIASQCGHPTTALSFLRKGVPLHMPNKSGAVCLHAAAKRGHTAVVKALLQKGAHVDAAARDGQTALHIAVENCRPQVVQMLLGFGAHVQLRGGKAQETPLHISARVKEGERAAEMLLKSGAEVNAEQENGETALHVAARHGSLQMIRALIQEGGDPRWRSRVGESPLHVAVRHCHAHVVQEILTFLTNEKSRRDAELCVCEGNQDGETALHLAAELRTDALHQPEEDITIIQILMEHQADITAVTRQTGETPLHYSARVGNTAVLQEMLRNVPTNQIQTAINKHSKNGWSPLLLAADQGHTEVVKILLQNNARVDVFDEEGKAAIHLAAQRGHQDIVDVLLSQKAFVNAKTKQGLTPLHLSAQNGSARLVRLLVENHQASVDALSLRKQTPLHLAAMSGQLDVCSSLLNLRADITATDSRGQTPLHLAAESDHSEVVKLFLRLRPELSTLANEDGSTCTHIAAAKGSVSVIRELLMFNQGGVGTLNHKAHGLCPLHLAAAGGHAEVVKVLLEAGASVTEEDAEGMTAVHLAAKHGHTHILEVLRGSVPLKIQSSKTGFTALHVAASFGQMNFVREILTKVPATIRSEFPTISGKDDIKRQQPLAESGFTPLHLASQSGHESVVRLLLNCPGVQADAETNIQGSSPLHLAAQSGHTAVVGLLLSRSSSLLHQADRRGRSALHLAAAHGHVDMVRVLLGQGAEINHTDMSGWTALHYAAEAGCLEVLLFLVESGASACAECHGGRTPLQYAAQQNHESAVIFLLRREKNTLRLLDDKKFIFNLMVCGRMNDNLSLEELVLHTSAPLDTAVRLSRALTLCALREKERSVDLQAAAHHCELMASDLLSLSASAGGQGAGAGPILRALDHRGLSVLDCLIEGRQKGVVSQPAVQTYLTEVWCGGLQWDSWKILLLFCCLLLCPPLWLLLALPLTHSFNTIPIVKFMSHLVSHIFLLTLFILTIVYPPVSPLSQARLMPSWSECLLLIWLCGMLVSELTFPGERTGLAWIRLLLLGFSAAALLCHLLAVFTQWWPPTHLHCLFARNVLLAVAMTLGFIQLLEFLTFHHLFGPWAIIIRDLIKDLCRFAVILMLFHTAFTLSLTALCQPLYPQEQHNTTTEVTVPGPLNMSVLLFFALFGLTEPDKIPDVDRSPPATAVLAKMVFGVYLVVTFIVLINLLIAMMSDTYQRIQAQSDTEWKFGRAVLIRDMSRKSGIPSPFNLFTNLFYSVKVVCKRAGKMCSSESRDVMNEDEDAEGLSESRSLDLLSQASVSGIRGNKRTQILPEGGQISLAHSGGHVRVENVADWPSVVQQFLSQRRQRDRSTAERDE
Mothers against decapentaplegic homolog 3, sequence (P84022 whole entry): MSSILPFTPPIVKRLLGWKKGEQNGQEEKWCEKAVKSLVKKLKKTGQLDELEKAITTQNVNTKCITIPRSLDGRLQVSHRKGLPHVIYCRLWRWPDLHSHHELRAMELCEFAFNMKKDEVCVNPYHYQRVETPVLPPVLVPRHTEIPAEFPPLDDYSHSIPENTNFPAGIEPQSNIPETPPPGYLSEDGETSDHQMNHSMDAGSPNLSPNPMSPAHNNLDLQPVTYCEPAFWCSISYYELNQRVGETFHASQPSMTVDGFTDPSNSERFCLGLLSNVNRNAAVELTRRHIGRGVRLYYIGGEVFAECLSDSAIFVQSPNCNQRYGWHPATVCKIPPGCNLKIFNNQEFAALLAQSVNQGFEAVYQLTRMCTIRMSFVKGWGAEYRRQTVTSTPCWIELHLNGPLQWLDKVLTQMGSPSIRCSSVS
Peroxisome proliferator-activated receptor gamma/Nuclear receptor coactivator 2, sequence (P37231 whole entry): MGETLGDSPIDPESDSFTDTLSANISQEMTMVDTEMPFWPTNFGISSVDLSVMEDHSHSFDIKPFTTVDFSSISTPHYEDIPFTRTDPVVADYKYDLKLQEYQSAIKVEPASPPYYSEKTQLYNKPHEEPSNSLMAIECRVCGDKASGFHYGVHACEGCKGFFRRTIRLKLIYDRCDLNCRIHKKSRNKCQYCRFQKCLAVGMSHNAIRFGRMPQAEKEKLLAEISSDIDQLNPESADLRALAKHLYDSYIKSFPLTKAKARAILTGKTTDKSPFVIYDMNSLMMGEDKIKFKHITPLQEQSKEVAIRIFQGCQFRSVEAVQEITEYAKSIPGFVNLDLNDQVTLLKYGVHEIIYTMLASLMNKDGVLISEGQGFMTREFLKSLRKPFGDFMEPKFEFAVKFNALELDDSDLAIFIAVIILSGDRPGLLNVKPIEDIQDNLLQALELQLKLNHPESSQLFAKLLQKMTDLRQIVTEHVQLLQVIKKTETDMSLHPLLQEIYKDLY
Peroxisome proliferator-activated receptor gamma/Nuclear receptor coactivator 2, sequence (Q15596 whole entry, further chain): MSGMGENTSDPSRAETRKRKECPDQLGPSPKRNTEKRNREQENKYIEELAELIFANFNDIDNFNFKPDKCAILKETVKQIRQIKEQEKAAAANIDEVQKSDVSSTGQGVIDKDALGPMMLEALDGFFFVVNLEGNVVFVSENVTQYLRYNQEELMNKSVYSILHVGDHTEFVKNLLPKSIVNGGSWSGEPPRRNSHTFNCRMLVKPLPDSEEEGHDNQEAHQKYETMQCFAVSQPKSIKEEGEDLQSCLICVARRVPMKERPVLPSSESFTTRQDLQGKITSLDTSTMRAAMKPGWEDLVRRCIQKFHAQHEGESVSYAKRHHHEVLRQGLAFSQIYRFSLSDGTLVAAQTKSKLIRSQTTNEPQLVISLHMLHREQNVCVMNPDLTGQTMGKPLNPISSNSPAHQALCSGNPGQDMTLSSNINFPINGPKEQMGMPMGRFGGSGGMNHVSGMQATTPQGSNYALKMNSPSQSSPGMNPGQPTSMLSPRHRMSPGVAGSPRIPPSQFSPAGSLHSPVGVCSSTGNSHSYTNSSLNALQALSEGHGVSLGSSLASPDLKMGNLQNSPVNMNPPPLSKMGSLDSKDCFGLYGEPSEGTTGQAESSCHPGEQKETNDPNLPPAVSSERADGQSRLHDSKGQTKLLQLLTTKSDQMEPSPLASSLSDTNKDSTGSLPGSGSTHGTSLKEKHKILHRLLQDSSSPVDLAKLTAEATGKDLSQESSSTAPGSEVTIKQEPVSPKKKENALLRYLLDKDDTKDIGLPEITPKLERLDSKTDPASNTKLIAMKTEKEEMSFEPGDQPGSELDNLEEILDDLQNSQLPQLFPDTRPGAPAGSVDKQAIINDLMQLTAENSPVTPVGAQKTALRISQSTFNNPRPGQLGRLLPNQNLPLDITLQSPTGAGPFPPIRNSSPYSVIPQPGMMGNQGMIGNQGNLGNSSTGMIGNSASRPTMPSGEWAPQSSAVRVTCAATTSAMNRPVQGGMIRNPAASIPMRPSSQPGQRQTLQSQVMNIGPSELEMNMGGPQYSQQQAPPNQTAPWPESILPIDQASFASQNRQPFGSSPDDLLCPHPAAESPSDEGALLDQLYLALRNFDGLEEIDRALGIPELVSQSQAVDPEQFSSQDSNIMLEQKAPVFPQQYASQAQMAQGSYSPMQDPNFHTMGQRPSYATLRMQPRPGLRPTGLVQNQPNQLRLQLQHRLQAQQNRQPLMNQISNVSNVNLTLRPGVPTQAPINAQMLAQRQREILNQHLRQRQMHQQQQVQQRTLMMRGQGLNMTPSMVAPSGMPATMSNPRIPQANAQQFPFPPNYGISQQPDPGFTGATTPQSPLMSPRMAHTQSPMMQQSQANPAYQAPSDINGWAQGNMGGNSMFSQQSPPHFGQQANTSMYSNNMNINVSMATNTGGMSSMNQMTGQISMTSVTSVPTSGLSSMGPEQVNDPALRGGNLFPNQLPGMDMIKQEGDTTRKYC

In the case of `COc1cc(/C=C2\SC(=O)N(CC(=O)Nc3cccc(C)c3)C2=O)cc([N+](=O)[O-])c1O`, the IC50 on Aminopeptidase N was 40.8 µM (active); in [1], > 50 µM (active).

For the compound `Cc1cc(C)c2c(O)nc(SCC(=O)c3ccc(C)c(C)c3)nc2n1`, the IC50 in [2] was 27.6 µM (active).

For the compound `Cc1onc(-c2ccccc2Cl)c1C(=O)Nc1cccc(-c2nc3ncccn3c2C)c1`, the EC50 at Mucolipin-3 and at Ion channel NompC was > 29.9 µM (not active) throughout.

Turning to `COc1ccccc1C1Nc2cccc3cccc(c23)N1`, in the assay on HeLa, the CC50 (as a rule, the concentration that lowers cell viability or growth by half) is > 99 µM (not active). For the same compound, the IC50 in [3] was 35.1 µM (active).

For `COc1ccc(N2CCN(C(=O)CCCn3c(=S)[nH]c4ccccc4c3=O)CC2)cc1`, the IC50 against Estrogen receptor is > 50 µM (not active).

For `CCCN1CCCc2cc(CN)ccc21`, the EC50 (as a rule, the midpoint of the concentration-response curve) in assay [4] was 13 µM (active); in [5], 0.127 µM (active); in [6] it was > 30 µM (not active); in assay [8], 18.5 µM (active). Besides, the IC50 in assay [7] was 24.6 µM (active).

As for `Oc1nc(NN=C(S)NCc2ccccc2)nc2c1C1(CCCCC1)Cc1ccccc1-2`, the 50% effective concentration (EC50) is 6.03 µM (active) in the assay on Streptococcus, 4.58 µM (active) at Streptokinase A, > 100 µM (active) in assay [10] and 3.33 µM (active) in assay [12]. Also, the concentration at half-maximal activity (AC50) – broadly, the midpoint of the concentration-response curve, whichever way the signal moves – in assay [9] was 3 µM (active). Moreover, the IC50 is 35.8 µM (active) in [11] and 11.8 µM (active) in assay [13].

On to `CCOC(=O)C1CCN(C(=O)CSc2ccccc2Cl)CC1`, for which the EC50 in assay [14], in [15] and in [16] was > 79.4 µM (not active) in each case.
